Source: US9339491B2, “Use of a pyrazole derivative in the treatment of acute exacerbations of chronic obstructive pulmonary disease” (Mereo BioPharma 1 Limited, priority 2012, dated 2016)

What was measured:
[1] = system: patients who have an acute COPD exacerbation; experiment: Clinical study in acute COPD exacerbation: treatment failure composite endpoint; type: in vivo, human; settings: retreatment with antibiotics, oral steroids, death, hospitalization or treatment indicating another exacerbation
Experimental: (§1) An exploratory, randomized, double-blind, placebo controlled, multi-center study to assess the efficacy, safety and tolerability of a single 75 mg dose of 3-[5-amino-4-(3-cyano-benzoyl)-pyrazol-1-yl]-N-cyclopropyl-4-methylbenzamide administered orally to patients who have an acute COPD exacerbation
(§2) The efficacy, safety and tolerability of a single 75 mg dose of 3-[5-amino-4-(3-cyano-benzoyl)-pyrazol-1-yl]-N-cyclopropyl-4-methylbenzamide (Compound A) administered orally to patients who have an acute COPD exacerbation was conducted.
(§3) 90 patients were randomized 1:1:1 to three treatment arms.
(§4) =single 75 mg dose of Compound A on day 1+prednisone placebo×10 days
(§5) =single dose of Compound A placebo on day 1+prednisone placebo×10 days
(§6) =single dose of Compound A placebo on day 1+40 mg oral prednisone […]×10 days
=doxycycline 100 mg dose×10 days or a non-macrolide antibiotic concurrent with local prescribing antibiotic guidelines. […]

[2] = system: patients who have an acute COPD exacerbation; experiment: Clinical study in acute COPD exacerbation: efficacy measured by FEV1; type: in vivo, human; settings: for FEV1 change from baseline, Difference, Compound A v prednisone: single 75 mg oral Compound A v 40 mg oral prednisone x 10 days; for FEV1 change from baseline, Difference, Compound A v placebo: single 75 mg oral dose of Compound A, ANCOVA repeated measurements
Experimental: “Forced Expiratory Volume in One Second” or “FEV1” as used herein is the volume of air that can forcibly be blown out in one second, after full inspiration, which is measured by a spirometer. It is a measure of lung function or performance. Average values for FEV1 in healthy people depend mainly on sex and age. Values of between 80% and 120% of the average value are considered normal.
as §1, §2
Primary objective: Assess the efficacy of a single 75 mg dose of Compound A in COPD patients presenting with an exacerbation as measured by the improvement in FEV1 over the first 5 days of treatment relative to placebo.
as §3, §4, §5, §6
(§7) =doxycycline 100 mg dose×10 days or a non-macrolide antibiotic concurrent with local prescribing antibiotic guidelines.
Visits at Days 3, 5 and 14 and follow-up visits 30 and 90 days. End of study visit at 6 months.
(§8) Present data (at 2nd interim) includes total of 91 randomized patients with 30 days of follow-up.
Inclusion criteria for the study population were: • Males/females ≧40 to ≦80 years • GOLD stages 2 to 4 • Smoking history at least 10 pack years • Investigator defined COPD exacerbation
Exclusion criteria for the study population were: • Arterial blood pH <7.26 at randomization • History or presence of clinically uncontrolled left heart failure • Clinical or radiological evidence of pneumonia • Long term Oxygen >15 hours a day • History of clinically significant ECG abnormalities • History or presence of impaired renal function • Use of macrolide antibiotics within 48 hours of randomization
(§9) Key efficacy endpoints: • FEV1 improvement from baseline at Day 5 • BORG Scores • EXACT PRO: • Recovery defined as reduction in EXACT score ≧9 points benchmarked against the maximum observed score (MOV: highest EXACT score using a 3-day rolling average) over the 14 day period following onset. • Time to recovery • Severity • Maximum severity—highest exact score over 30 days • Total severity—area under the curve from onset (i.e. Day 1) to recovery/Day 30 whichever comes first based on total exact score. • Duration of exacerbation (days from onset to recovery/Day 30) • Frequency of patients who recovered at Day 30 • Treatment failure: • Patients who were treated with oral corticosteroids, admitted to hospital to COPD related symptoms, changed in antibiotic therapy relating to COPD, or in the attending physicians opinion needed treatment for a further exacerbation.
FEV1 change from baseline analysed with ANCOVA ([…]) model for repeated measurements. Estimated between patient standard deviation—200 ml.

[3] = system: patients who have an acute COPD exacerbation; experiment: Clinical study in acute COPD exacerbation: patient disposition / discontinuation; type: in vivo; settings: for Reason for discontinuation: Death: 2nd interim, 30 days of follow-up, Compound A N = 31, Prednisone N = 30; for Reason for discontinuation: Adverse Events: human, in vivo
Experimental: as §1, §2, §3, §4, §5, §6, §7, §8

[4] = system: patients who have an acute COPD exacerbation; experiment: Clinical study in acute COPD exacerbation: dyspnea by Borg CR 10 scores; type: in vivo, human; parameters: AUC[days 2-14] in Borg CR 10 scores, Difference LS mean, Compound A - prednisone / AUC[days 2-14] in Borg CR 10 scores (adjusted for Day 1), LS mean / AUC[days 2-14] in Borg CR 10 scores, Difference LS mean, treatment - placebo: unit not given beside the values; settings: for AUC[days 2-14] in Borg CR 10 scores (adjusted for Day 1), LS mean: per treatment arm; for AUC[days 2-14] in Borg CR 10 scores, Difference LS mean, treatment - placebo: versus placebo
Experimental: “BORG Score” as used herein refers to a measurement of dyspnea in accordance with the Borg scale. On that scale 0 represents no breathlessness at all and 10 represents maximum breathlessness.
as §1, §2, §3, §4, §5, §6, §7, §9
LS is an abbreviation for least squares.

[5] = system: patients who have an acute COPD exacerbation; experiment: Clinical study in acute COPD exacerbation: safety and tolerability (adverse events); type: in vivo, human
Experimental: as §1, §2
Secondary objectives: Safety and tolerability, patient reported outcomes, and time to next exacerbation.
as §3, §4, §5, §6, §7
Initial hospitalization for COPD exacerbation at baseline was not recorded as a serious adverse event (SAE). Only subsequent admissions were recorded. […] No rash was noted. No unusual events or imbalances between treatment arms were noted.

[6] = Compound A N = 31, Prednisone N = 30

Cc1ccc(C(=O)NC2CC2)cc1-n1ncc(C(=O)c2cccc(C#N)c2)c1N [Compound A, 3-[5-Amino-4-(3-cyanobenzoyl)-pyrazol-1-yl]-N-cyclopropyl-4-methylbenzamide]
Treatment failures (composite endpoint) [1]: 0 patients | Improvement in FEV1 versus placebo and prednisone ([2]; Day 3): greater improvement in FEV1 | FEV1 change from baseline, Difference, Compound A v prednisone ([2]; Day 3): 102.28 mL | FEV1 change from baseline, Difference, Compound A v placebo ([2]; Day 3): 119.59 mL | FEV1 change from baseline, Difference, Compound A v prednisone ([2]; Day 5): 109.15 mL | FEV1 change from baseline, Difference, Compound A v placebo ([2]; Day 5): 46.56 mL | Patients who responded with >100 ml improvement (FEV1) ([2]; day 3, single 75 mg oral dose): 60% | Reason for discontinuation: Death [3]: 0 (0.0) n (%) | Reason for discontinuation: Adverse Events ([3]; 30 days): 0 (0.0) n (%) | Breathlessness over 14 days compared with prednisone ([4]; over 14 days): on average less breathless | AUC[days 2-14] in Borg CR 10 scores (adjusted for Day 1), LS mean ([4]; days 2-14): 3.25 | AUC[days 2-14] in Borg CR 10 scores, Difference LS mean, treatment - placebo ([4]; days 2-14, adjusted for Day 1): −0.23 | AUC[days 2-14] in Borg CR 10 scores, Difference LS mean, Compound A - prednisone ([4]; versus prednisone, days 2-14, adjusted for Day 1): −0.36 | COPD adverse events ([5]; human, in vivo): No COPD adverse events were observed | Number of subjects with AE: Abdominal pain upper ([5]; human, in vivo): 1 (3.2) n (%) | Number of subjects with AE: Any AE ([5]; human, in vivo): 8 (25.8) n (%) | Number of subjects with AE: COPD ([5]; human, in vivo): 0 (0.0) n (%) | Number of subjects with AE: Diarrhoea ([5]; human, in vivo): 1 (3.2) n (%) | Number of subjects with AE: Dizziness ([5]; human, in vivo): 2 (6.5) n (%) | Number of subjects with AE: Headache ([5]; human, in vivo): 1 (3.2) n (%) | Number of subjects with AE: Nasopharyngitis ([5]; human, in vivo): 1 (3.2) n (%) | Number of subjects with AE: Nausea ([5]; human, in vivo): 0 (0.0) n (%) | Number of subjects with AE: Occult blood ([5]; human, in vivo): 1 (3.2) n (%) | Number of subjects with AE: Vertigo ([5]; human, in vivo): 1 (3.2) n (%) | Safety and tolerability ([5]; human, in vivo): safe and well tolerated

C[C@]12C=CC(=O)C=C1CC[C@@H]1[C@@H]2C(=O)C[C@@]2(C)[C@H]1CC[C@]2(O)C(=O)CO [Prednisone, prednisone, reference compound]
Reason for discontinuation: Death [3]: 2 (6.7) n (%) | Reason for discontinuation: Adverse Events [3]: 0 (0.0) n (%) | AUC[days 2-14] in Borg CR 10 scores (adjusted for Day 1), LS mean ([4]; days 2-14): 3.61 | AUC[days 2-14] in Borg CR 10 scores, Difference LS mean, treatment - placebo ([4]; days 2-14, adjusted for Day 1): 0.13 | Number of subjects with AE: Abdominal pain upper [5, 6]: 1 (3.3) n (%) | Number of subjects with AE: Any AE [5, 6]: 12 (40.0) n (%) | Number of subjects with AE: COPD [5, 6]: 5 (16.7) n (%) | Number of subjects with AE: Diarrhoea [5, 6]: 0 (0.0) n (%) | Number of subjects with AE: Dizziness [5, 6]: 0 (0.0) n (%) | Number of subjects with AE: Headache [5, 6]: 3 (10.0) n (%) | Number of subjects with AE: Nasopharyngitis [5, 6]: 1 (3.3) n (%) | Number of subjects with AE: Nausea [5, 6]: 2 (6.7) n (%) | Number of subjects with AE: Occult blood [5, 6]: 1 (3.3) n (%) | Number of subjects with AE: Vertigo [5, 6]: 1 (3.3) n (%)
